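Grown in 96-well plates, cells were treated for 48 hours with each compound at five concentrations. Insufficient inhibition: endpoint recorded as highest concentration tested. Here, GI50 denotes the concentration required for 50% inhibition of growth. TGI: total growth inhibition.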
How the values were obtained:
Experiment in all cases: DTP human tumour cell line panel, 48 h
[1] = tested on: A549 NSCLC
[2] = tested on: HS 578T breast
[3] = tested on: COLO 205 colon
[4] = tested on: TK-10 renal
[5] = tested on: UO-31 renal
[6] = tested on: RXF 393 renal
[7] = tested on: OVCAR-5 ovarian
[8] = tested on: NCI-H23 lung
[9] = tested on: HCC-2998 colon
[10] = tested on: UACC-257 melanoma

Compound	GI50 [1] [µM]	TGI [1] [µM]	GI50 [2] [µM]	TGI [2] [µM]	GI50 [3] [µM]	TGI [3] [µM]	GI50 [4] [µM]	TGI [4] [µM]	GI50 [5] [µM]	TGI [5] [µM]	GI50 [6] [µM]	TGI [6] [µM]	GI50 [7] [µM]	TGI [7] [µM]	GI50 [8] [µM]	TGI [8] [µM]	GI50 [9] [µM]	TGI [9] [µM]	TGI [10] [µM]	GI50 [10] [µM]
COc1ccc(-c2ccc(C3CC(c4ccccc4)=NN3)o2)c([N+](=O)[O-])c1 (centres undefined)	47.1	> 100	43	> 100	52.9	> 100	22.1	63.8	> 100	> 100	40	> 100	> 100	> 100	39.1	> 100	25.5	58.5		
Cc1nnc2n1N=C(c1ccccc1)C(c1ccccc1)S2 (centres undefined)		> 100				41.8		> 100		> 100		85.7		> 100		64		> 100	> 100	
C1=CC(=P(c2ccccc2)(c2ccccc2)c2ccccc2)C=C1		79.7				14.8		50.9		30.8		28.2		28.6		54.3		24.3	20.3	
Cc1cccc(N2C(=O)/C(=C/C(Cl)=C/c3ccc([N+](=O)[O-])cc3)SC2=S)c1C	1.66	> 100	2.8	> 100	1.81	5.08	3.17	> 100	1.29	2.56	1.63	3.52	2.43	5.67	1.84	4.38	1.72	3.54		
O=c1c(Cc2ccc3c(c2)OCO3)nnc2sc(-c3cc(F)c(Cl)cc3Cl)nn12	41.8	> 100			22.6	59.2	22.6	65	50.2	> 100	42.7	> 100	46.6	> 100	82.5	> 100			> 100	62.5
CC(C)C[C@@H](N)[C@@H](O)C(=O)N[C@H](C(=O)N[C@H](C(=O)N[C@@H](CC(=O)O)C(=O)O)C(C)C)C(C)C	> 20	> 20	> 20	> 20	> 20	> 20	> 20	> 20	> 20	> 20			> 20	> 20	> 20	> 20	> 20	> 20	> 20	> 20
Cc1cc2c(c(C(=O)O)c1C)-c1cccc(Cl)c1C2=O		> 100				> 100		> 100		> 100		> 100		> 100		> 100		> 100	> 100	
COc1ccc(-c2nc3ccccc3s2)cc1OC		> 100		> 100		> 100				> 100				> 100		> 100			> 100	
